Organism: Rattus norvegicus
Test: Open TG-GATES - Regimen: Single
Format: toxicity, organism-based, Sprague-Dawley
Parameters: regimen Single, gender Male, age 6 weeks
Conditions: in vivo, po, route gavage; for APTT / Bas / Eos / Fbg / Hb / Ht / Lym / MCH / MCHC / MCV / Mono / Neu / PT / Plat / RBC / Ret / WBC: tissue Blood; for A/G / ALP / ALT / AST / BUN / CRE / Ca / Cl / DBIL / GLC / IP / K / LDH / Na / PL / RALB / TBIL / TC / TG / TP / gamma-GTP: tissue Plasma
[1] = 30 mg/kg, 3 h, dose level Middle
[2] = 30 mg/kg, 6 h, dose level Middle
[3] = 30 mg/kg, 9 h, dose level Middle
[4] = 30 mg/kg, 24 h, dose level Middle
[5] = 100 mg/kg, 3 h, dose level High
[6] = 100 mg/kg, 6 h, dose level High
[7] = 100 mg/kg, 9 h, dose level High
[8] = 100 mg/kg, 24 h, dose level High

Cn1cc[nH]c1=S [METHIMAZOLE]
TERMINAL_BW [1]: 210.9 g | APTT [1]: 22.2 s | Bas [1]: 0% | Eos [1]: 1% | Fbg [1]: 305 mg/dL | Hb [1]: 14.3 g/dL | Ht [1]: 40.3% | Lym [1]: 73.2% | MCH [1]: 21.7 pg | MCHC [1]: 35.4% | MCV [1]: 61.4 fL | Mono [1]: 3% | Neu [1]: 21.8% | PT [1]: 15.9 s | Plat [1]: 120.3 x10_4/uL | RBC [1]: 657.4 x10_4/ul | Ret [1]: 8% | WBC [1]: 65.4 x10_2/uL | A/G [1]: 1.1 | ALP [1]: 1707.8 IU/L | ALT [1]: 42.8 IU/L | AST [1]: 72.2 IU/L | BUN [1]: 10.4 mg/dL | CRE [1]: 0.1 mg/dL | Ca [1]: 10.7 mg/dL | Cl [1]: 105 meq/L | DBIL [1]: 0 mg/dL | GLC [1]: 186.4 mg/dL | IP [1]: 10.1 mg/dL | K [1]: 4.3 meq/L | LDH [1]: 250.2 IU/L | Na [1]: 141.6 meq/L | PL [1]: 146 mg/dL | RALB [1]: 2.9 g/dL | TBIL [1]: 0.006 mg/dL | TC [1]: 82.4 mg/dL | TG [1]: 64.4 mg/dL | TP [1]: 5.7 g/dL | gamma-GTP [1]: 1 IU/L | TERMINAL_BW [2]: 208.1 g | APTT [2]: 22.7 s | Bas [2]: 0% | Eos [2]: 1% | Fbg [2]: 316.8 mg/dL | Hb [2]: 14 g/dL | Ht [2]: 40% | Lym [2]: 73.6% | MCH [2]: 22 pg | MCHC [2]: 35% | MCV [2]: 62.7 fL | Mono [2]: 2.8% | Neu [2]: 21.8% | PT [2]: 16.2 s | Plat [2]: 123.7 x10_4/uL | RBC [2]: 637.2 x10_4/ul | Ret [2]: 8.4% | WBC [2]: 68.1 x10_2/uL | A/G [2]: 1.2 | ALP [2]: 1225.2 IU/L | ALT [2]: 46.2 IU/L | AST [2]: 71.8 IU/L | BUN [2]: 11.8 mg/dL | CRE [2]: 0.1 mg/dL | Ca [2]: 10.6 mg/dL | Cl [2]: 103.4 meq/L | DBIL [2]: 0.002 mg/dL | GLC [2]: 196.2 mg/dL | IP [2]: 9.4 mg/dL | K [2]: 4.2 meq/L | LDH [2]: 329.8 IU/L | Na [2]: 140.4 meq/L | PL [2]: 141.2 mg/dL | RALB [2]: 2.9 g/dL | TBIL [2]: 0.01 mg/dL | TC [2]: 79.8 mg/dL | TG [2]: 45 mg/dL | TP [2]: 5.5 g/dL | gamma-GTP [2]: 1 IU/L | TERMINAL_BW [3]: 205.3 g | APTT [3]: 22.1 s | Bas [3]: 0% | Eos [3]: 1.2% | Fbg [3]: 299.8 mg/dL | Hb [3]: 13.7 g/dL | Ht [3]: 38.8% | Lym [3]: 75.4% | MCH [3]: 21.5 pg | MCHC [3]: 35.4% | MCV [3]: 60.8 fL | Mono [3]: 2.4% | Neu [3]: 20.2% | PT [3]: 15.7 s | Plat [3]: 121.8 x10_4/uL | RBC [3]: 640 x10_4/ul | Ret [3]: 8.1% | WBC [3]: 70 x10_2/uL | A/G [3]: 1.2 | ALP [3]: 1422 IU/L | ALT [3]: 43.8 IU/L | AST [3]: 71.4 IU/L | BUN [3]: 12.8 mg/dL | CRE [3]: 0.1 mg/dL | Ca [3]: 10.5 mg/dL | Cl [3]: 105.2 meq/L | DBIL [3]: 0.004 mg/dL | GLC [3]: 198 mg/dL | IP [3]: 8.7 mg/dL | K [3]: 3.8 meq/L | LDH [3]: 353.6 IU/L | Na [3]: 140.6 meq/L | PL [3]: 155.8 mg/dL | RALB [3]: 3 g/dL | TBIL [3]: 0.012 mg/dL | TC [3]: 85.4 mg/dL | TG [3]: 81 mg/dL | TP [3]: 5.6 g/dL | gamma-GTP [3]: 1 IU/L | TERMINAL_BW [4]: 212.4 g | APTT [4]: 21 s | Bas [4]: 0% | Eos [4]: 1% | Fbg [4]: 320.4 mg/dL | Hb [4]: 13.9 g/dL | Ht [4]: 39.6% | Lym [4]: 76.6% | MCH [4]: 21.8 pg | MCHC [4]: 35.2% | MCV [4]: 62 fL | Mono [4]: 2.4% | Neu [4]: 19% | PT [4]: 16.3 s | Plat [4]: 115.8 x10_4/uL | RBC [4]: 640 x10_4/ul | Ret [4]: 7.8% | WBC [4]: 84 x10_2/uL | A/G [4]: 1.1 | ALP [4]: 1634.4 IU/L | ALT [4]: 42.4 IU/L | AST [4]: 64.6 IU/L | BUN [4]: 15.4 mg/dL | CRE [4]: 0.1 mg/dL | Ca [4]: 10.7 mg/dL | Cl [4]: 106 meq/L | DBIL [4]: 0 mg/dL | GLC [4]: 180.6 mg/dL | IP [4]: 7 mg/dL | K [4]: 4.4 meq/L | LDH [4]: 211.4 IU/L | Na [4]: 141.6 meq/L | PL [4]: 158.6 mg/dL | RALB [4]: 3 g/dL | TBIL [4]: 0.002 mg/dL | TC [4]: 84.6 mg/dL | TG [4]: 131.4 mg/dL | TP [4]: 5.6 g/dL | gamma-GTP [4]: 1 IU/L | TERMINAL_BW [5]: 213.6 g | APTT [5]: 21.9 s | Bas [5]: 0% | Eos [5]: 1.2% | Fbg [5]: 315 mg/dL | Hb [5]: 13.9 g/dL | Ht [5]: 39.4% | Lym [5]: 74% | MCH [5]: 21.8 pg | MCHC [5]: 35.2% | MCV [5]: 61.9 fL | Mono [5]: 2% | Neu [5]: 23% | PT [5]: 15.4 s | Plat [5]: 121.9 x10_4/uL | RBC [5]: 636.8 x10_4/ul | Ret [5]: 8.7% | WBC [5]: 50 x10_2/uL | A/G [5]: 1.2 | ALP [5]: 1490.2 IU/L | ALT [5]: 55 IU/L | AST [5]: 72.8 IU/L | BUN [5]: 11.8 mg/dL | CRE [5]: 0.1 mg/dL | Ca [5]: 10.6 mg/dL | Cl [5]: 102.8 meq/L | DBIL [5]: 0.002 mg/dL | GLC [5]: 191.2 mg/dL | IP [5]: 9.7 mg/dL | K [5]: 4.2 meq/L | LDH [5]: 351.4 IU/L | Na [5]: 140 meq/L | PL [5]: 153.6 mg/dL | RALB [5]: 3 g/dL | TBIL [5]: 0.008 mg/dL | TC [5]: 89.2 mg/dL | TG [5]: 62.8 mg/dL | TP [5]: 5.6 g/dL | gamma-GTP [5]: 1 IU/L | TERMINAL_BW [6]: 210.2 g | APTT [6]: 22.6 s | Bas [6]: 0% | Eos [6]: 0.8% | Fbg [6]: 306.6 mg/dL | Hb [6]: 14.1 g/dL | Ht [6]: 40.5% | Lym [6]: 72.4% | MCH [6]: 21.4 pg | MCHC [6]: 34.7% | MCV [6]: 61.7 fL | Mono [6]: 3% | Neu [6]: 23% | PT [6]: 16 s | Plat [6]: 117.2 x10_4/uL | RBC [6]: 657.2 x10_4/ul | Ret [6]: 7.8% | WBC [6]: 83.4 x10_2/uL | A/G [6]: 1.1 | ALP [6]: 1474.2 IU/L | ALT [6]: 46.2 IU/L | AST [6]: 66.8 IU/L | BUN [6]: 10 mg/dL | CRE [6]: 0.1 mg/dL | Ca [6]: 10.5 mg/dL | Cl [6]: 104.4 meq/L | DBIL [6]: 0.002 mg/dL | GLC [6]: 193 mg/dL | IP [6]: 9.1 mg/dL | K [6]: 4.2 meq/L | LDH [6]: 344.8 IU/L | Na [6]: 140.2 meq/L | PL [6]: 136.6 mg/dL | RALB [6]: 2.9 g/dL | TBIL [6]: 0.014 mg/dL | TC [6]: 80.2 mg/dL | TG [6]: 52.4 mg/dL | TP [6]: 5.5 g/dL | gamma-GTP [6]: 1.2 IU/L | TERMINAL_BW [7]: 206.1 g | APTT [7]: 21.2 s | Bas [7]: 0% | Eos [7]: 1% | Fbg [7]: 319.2 mg/dL | Hb [7]: 13.8 g/dL | Ht [7]: 39% | Lym [7]: 71.4% | MCH [7]: 21.8 pg | MCHC [7]: 35.3% | MCV [7]: 61.7 fL | Mono [7]: 2.8% | Neu [7]: 23.4% | PT [7]: 16.5 s | Plat [7]: 134.8 x10_4/uL | RBC [7]: 631.2 x10_4/ul | Ret [7]: 8.1% | WBC [7]: 88.6 x10_2/uL | A/G [7]: 1.2 | ALP [7]: 1403 IU/L | ALT [7]: 47 IU/L | AST [7]: 69.8 IU/L | BUN [7]: 12.6 mg/dL | CRE [7]: 0.1 mg/dL | Ca [7]: 10.4 mg/dL | Cl [7]: 105.6 meq/L | DBIL [7]: 0.004 mg/dL | GLC [7]: 195.2 mg/dL | IP [7]: 8.6 mg/dL | K [7]: 4.2 meq/L | LDH [7]: 309.6 IU/L | Na [7]: 140.6 meq/L | PL [7]: 144.4 mg/dL | RALB [7]: 2.9 g/dL | TBIL [7]: 0.014 mg/dL | TC [7]: 78.6 mg/dL | TG [7]: 71.6 mg/dL | TP [7]: 5.5 g/dL | gamma-GTP [7]: 1 IU/L | TERMINAL_BW [8]: 209.2 g | APTT [8]: 20.8 s | Bas [8]: 0% | Eos [8]: 1.2% | Fbg [8]: 303.8 mg/dL | Hb [8]: 14.1 g/dL | Ht [8]: 40% | Lym [8]: 76.8% | MCH [8]: 21.6 pg | MCHC [8]: 35.3% | MCV [8]: 61.1 fL | Mono [8]: 2.4% | Neu [8]: 18.8% | PT [8]: 16.5 s | Plat [8]: 125.7 x10_4/uL | RBC [8]: 655.6 x10_4/ul | Ret [8]: 7.6% | WBC [8]: 63.5 x10_2/uL | A/G [8]: 1.2 | ALP [8]: 1903.8 IU/L | ALT [8]: 44.2 IU/L | AST [8]: 55.6 IU/L | BUN [8]: 12.6 mg/dL | CRE [8]: 0.1 mg/dL | Ca [8]: 10.9 mg/dL | Cl [8]: 106.4 meq/L | DBIL [8]: 0.004 mg/dL | GLC [8]: 170 mg/dL | IP [8]: 7.2 mg/dL | K [8]: 4.3 meq/L | LDH [8]: 263 IU/L | Na [8]: 142 meq/L | PL [8]: 159.8 mg/dL | RALB [8]: 2.9 g/dL | TBIL [8]: 0.016 mg/dL | TC [8]: 84.6 mg/dL | TG [8]: 129.6 mg/dL | TP [8]: 5.4 g/dL | gamma-GTP [8]: 1 IU/L
